Experiments:
Format in all cases: cell-based
[1] = test system: H3122 cell line (NSCLC, EML4-ALK fusion); assay: Ceritinib sensitivity (IC50) of parental H3122 cell line; conditions: Homo sapiens, NCI-H3122; ALK-positive H3122 parental cell line
Method: (§1) In the particular study reported here, resistance to the small molecule ALK inhibitor Ceritinib was studied. The patient-derived cell line H3122 is a NSCLC line with an EML4-ALK fusion, and it is sensitive to Ceritinib. To simulate the clinical development of therapeutic resistance following initial treatment, this cell line was cultured over a period of 6 months with low but increasing doses of Ceritinib. […] These clones were expanded and comprise the cell lines LDKR1-4.
(§2) FIG. 5 is a schematic diagram showing the development of the cell lines. The ALK-positive H3122 cell line, which is sensitive to the ALK inhibitor Ceritinib (ICso=53 nM), was treated with escalating doses of Ceritinib over a period 6 months. Resistant clones LDKR1-4 were obtained with ICso values in a range from 1494 nM to 3897 nM.

[2] = test system: LDKR1-4 cell lines (Ceritinib-resistant clones of H3122); assay: Ceritinib sensitivity (IC50) of resistant clones LDKR1-4
Method: as §1, §2

[3] = target: T1, ALK (Homo sapiens, UniProt Q9UM73); assay: Phosphoproteomic analysis of ALK phosphorylation after Ceritinib treatment, parental H3122; conditions: 300 nM Ceritinib, 24 hours
T1 sequence (Q9UM73 with tags, fused parts or gaps): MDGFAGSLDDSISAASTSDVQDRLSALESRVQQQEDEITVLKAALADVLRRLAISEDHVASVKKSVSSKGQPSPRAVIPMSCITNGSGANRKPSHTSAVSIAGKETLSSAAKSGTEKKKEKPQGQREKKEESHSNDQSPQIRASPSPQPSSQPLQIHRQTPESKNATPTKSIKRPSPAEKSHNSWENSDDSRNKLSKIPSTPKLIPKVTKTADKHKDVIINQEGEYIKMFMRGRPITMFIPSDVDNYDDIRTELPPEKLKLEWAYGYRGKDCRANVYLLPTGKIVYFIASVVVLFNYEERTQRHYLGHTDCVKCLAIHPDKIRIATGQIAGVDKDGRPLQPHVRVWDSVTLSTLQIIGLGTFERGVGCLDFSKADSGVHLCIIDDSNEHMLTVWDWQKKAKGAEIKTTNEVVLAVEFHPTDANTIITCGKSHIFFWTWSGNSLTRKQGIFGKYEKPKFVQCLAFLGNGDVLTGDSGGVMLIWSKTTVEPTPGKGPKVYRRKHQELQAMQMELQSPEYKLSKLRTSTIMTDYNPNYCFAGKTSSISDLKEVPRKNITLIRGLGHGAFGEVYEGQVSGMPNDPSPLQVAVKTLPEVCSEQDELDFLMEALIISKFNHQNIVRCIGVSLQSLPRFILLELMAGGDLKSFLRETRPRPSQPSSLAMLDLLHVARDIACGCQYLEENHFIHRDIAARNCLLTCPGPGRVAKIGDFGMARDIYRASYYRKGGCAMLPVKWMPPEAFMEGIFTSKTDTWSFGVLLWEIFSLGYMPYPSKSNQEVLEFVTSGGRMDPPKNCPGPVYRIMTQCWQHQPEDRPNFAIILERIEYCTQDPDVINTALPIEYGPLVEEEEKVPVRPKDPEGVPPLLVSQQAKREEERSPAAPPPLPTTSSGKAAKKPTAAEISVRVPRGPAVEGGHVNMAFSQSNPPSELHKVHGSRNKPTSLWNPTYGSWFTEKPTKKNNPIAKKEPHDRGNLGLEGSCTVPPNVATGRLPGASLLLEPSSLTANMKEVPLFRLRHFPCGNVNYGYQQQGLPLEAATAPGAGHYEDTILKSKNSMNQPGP
Method: (§3) The H3122 parental and LDKR1-4 cell lines were each grown in culture with or without the addition of Ceritinib for 24 hours, and harvested cells were subsequently processed for both proteomic and phosphoproteomic analyses. Specifically, each of the cell lines was cultured in RPMI-1640 media supplemented with 10% FBS, 100 units/mL penicillin, and 100 μg/mL streptomycin. Cells were treated for 24 hours with 300 nM Ceritinib (also known as LDK378). Cells were collected, and the cell pellets were resuspended in mammalian lysis buffer and lysed by passage through a 21 gauge needle. The lysate was centrifuged at 15,000×g for 5 minutes at 4° C., and insoluble debris was discarded.
(§4) The lysates were then prepared for mass spectrometry analysis. Samples were reduced with DTT, alkylated with iodoacetamide, and precipitated with methanol/chloroform. Protein was digested overnight at room temperature with endoproteinase Lys-C(obtained from Wako Chemicals, Richmond, VA) followed by digestion with sequencing-grade trypsin (obtained from Promega Corp., Madison, WI) for 6 hours at 37° C. Samples were quenched with 1% TFA and desalted using Sep-Pak C18 (SPE) cartridges (obtained from Waters Corp., Milford, MA). The peptide concentration of each sample was determined using a BCA assay. […]

[4] = target: T1, ALK; assay: Phosphoproteomic analysis of ALK activity after Ceritinib treatment, resistant cell lines; conditions: LDKR1-4, 300 nM Ceritinib, 24 hours
Method: as §3, §4

SMILES: Cc1cc(Nc2ncc(Cl)c(Nc3ccccc3S(=O)(=O)C(C)C)n2)c(OC(C)C)cc1C1CCNCC1 [Ceritinib]
- IC50 [1]: 53 nM
- IC50 ([2]; Homo sapiens, NCI-H3122, resistant clones LDKR1-4, obtained after 6 months of escalating doses of Ceritinib): 1490 to 3900 nM
- IC50 of resistant clones relative to parental sensitive cell line ([2]; four single resistant clones LDKR1-4 vs parental H3122): at least twenty times higher
- ALK Thr 1506/Tyr 1507/Ser 1509 phosphorylation, ratio to parental cell line with no drug [3]: decreasing fourfold upon drug treatment
- ALK Tyr 1078 phosphorylation, ratio to parental cell line with no drug [3]: decreased upon drug treatment
- Inhibition of ALK activity in resistant cell lines [4]: continued to be effective at inhibiting ALK activity in at least three of the four resistant cell lines
